This is an account of results in patent US20110129868A1, “CELL CAPABLE OF REPLICATING NOVEL HCV REPLICON, CELL CAPABLE OF REPLICATING FULL-LENGTH HCV RNA, AND USE OF THOSE CELLS” (priority 2008, published 2011).

One data set deals with ORL8 cells. The data set is described as follows: cell count by trypan blue staining, ORL8 cells. The class given is cell-based, human. Particulars: drug at the concentration corresponding to the EC50 value.
For a further data set, the system named is ORL11 cells. The data set is described as follows: cell count by trypan blue staining, ORL11 cells. The data set is classed as cell-based, human.
Data set [1] has as its system full-length HCV RNA replication in OR6 cells. The data set is described as follows: microbe, parasite or virus in culture. The class given is cell-based, HCV-O strain (genotype 1b). The source says: (§1) Renilla luciferase was quantified by collecting cells using a Renilla Luciferase Assay System (Promega) according to the manufacturer's experiment protocol.
An OR6-cell assay system was used as a control.

Data set [2] has as its system HCV replicon of Con1 strain. The settings on record: cited from earlier work.
Data set [3] relates to full-length HCV RNA replication in ORL11 cells. The data set is described as follows: microbe, parasite or virus in culture. The data set is classed as cell-based, HCV-O strain (genotype 1b). Here is the method:
as §1
(§2) Luciferase activity of each cell line was then measured at hour 24, 48, and 72. […] SD values were calculated based on the results from three samples at each point. […]

The test system of data set [4] is full-length HCV RNA replication in ORL8 cells. The data set is described as follows: microbe, parasite or virus in culture. The data set is classed as cell-based, HCV-O strain (genotype 1b). Particulars: for EC50: Hepatitis C virus. Here is the method: as §1, §2
In another data set the test system is OR6 cells. The data set is described as follows: cell count by trypan blue staining, OR6 cells. The data set is classed as cell-based, human. Particulars: drug at the concentration corresponding to the EC50 value.
In data set [5] the test system is ORL8, ORL11, and OR6 cells. The data set is described as follows: cell count / cytotoxicity check, cell lines not itemised. Particulars: at a concentration of 12.5 μM.
Method: In order to ascertain that the decrease in luciferase activity in response to the addition of ribavirin was not due to the cell growth inhibition or cytotoxicity by ribavirin, the cells were cultured under the same conditions used for the luciferase assay, and counted using a trypan blue staining technique. The effect of adding ribavirin in the concentration corresponding to the EC50 value of each cell line was examined.
FLV (Calbiochem, 344095) was used.
Data set [6] relates to full-length HCV RNA replication in OR6 cells. The settings on record: OR6 cell assay system (Naka et al., BBRC 2005); cited from earlier work.
For data set [7] the following is noted: in vivo; cited from earlier work.
Where [8] appears, read: ORL11 cells, drug at the concentration corresponding to the EC50 value, trypan blue.
Setting [9] is: Hepatitis C virus, OR6 cells, luciferase activity after 72 hours, read-out: EC50.
Where [10] appears, read: OR6 cells, drug concentrations based on the EC50 values.
Where [11] appears, read: Hepatitis C virus, 72 h, luciferase activity after 72 hours, read-out: EC50.
Setting [12] is: drug concentrations based on the EC50 values.
[13] abbreviates: ORL8 cells, luciferase activity after 72 hours, read-out: EC50.
The mark [14] stands for this setting: ORL8 cells, drug concentrations based on the EC50 values.

Where two headings read alike, the source gives them in different places.

For the molecule `CC(=O)Oc1ccccc1C(=O)O` [ASA, Acetylsalicylic Acid], the “cell count over the control cells” value in the data set with ORL8 cells is 53%; in the data set on ORL11 cells (setting [8]), 72%; in the data set on OR6 cells it was 51%. The EC50 in data set [1] (Hepatitis C virus, OR6, 72 h) was 2160 µM; in [2] (HCV replicons of Con1 strain (Trujillo-Murillo et al.)), 4000 µM; in data set [3] (Hepatitis C virus, 72 h, luciferase activity after 72 hours) it was 1170 µM; in data set [4] (ORL8, 72 h), 1330 µM.

For the molecule `CC(C)n1c(/C=C/C(O)CC(O)CC(=O)O)c(-c2ccc(F)cc2)c2ccccc21` (stereo not drawn) [FLV, Fluvastatin], the “cell count over the control cells” value in the data set on ORL8 cells, in the data set with ORL11 cells (setting [8]) and in the data set on OR6 cells was no less than 97% throughout. In addition, the EC50 in data set [1] (Hepatitis C virus, OR6 cells, FLV from a different manufacturer (LKT laboratories Inc., F4482), read-out: EC50) amounted to 1.44 µM; in [1] (setting [9]), 1.22 µM; in data set [3] (FLV from a different manufacturer (LKT laboratories Inc., F4482), read-out: EC50), 0.14 µM; in [3] (setting [11]) it was 0.32 µM; in data set [3] (Hepatitis C virus, FLV from a different manufacturer (LKT laboratories Inc., F4482), read-out: EC50), 0.11 µM; in data set [4] (ORL8 cells, FLV from a different manufacturer (LKT laboratories Inc., F4482), read-out: EC50), 0.31 µM. In data set [4] (setting [13]), the EC50 was found to be 0.28 µM. The results for the “luciferase activity after treatment (single agent or combined use)” value (“luciferase activity after treatment” below) in data set [1] (setting [10]), in data set [3] (setting [12]) and in [4] (setting [14]) were 55%, 51% and 59%, respectively.

`COC1=C2C[C@@H](C)C[C@H](OC)[C@H](O)[C@@H](C)/C=C(\C)[C@H](OC(N)=O)[C@@H](OC)/C=C\C=C(/C)C(=O)NC(=CC1=O)C2=O` [Geldanamycin]: the figures for the EC50 in [1] (setting [9]), in data set [3] (setting [11]) and in data set [4] (setting [13]) were 0.0021 µM, 0.00331 µM and 0.00257 µM, respectively.

Regarding `CC[C@H](C)C(=O)O[C@H]1C[C@@H](C)C=C2C=C[C@H](C)[C@H](CC[C@@H]3C[C@@H](O)CC(=O)O3)[C@H]21` [LOV, Lovastatin], the EC50 was 3 µM in data set [1] (setting [9]), 1.04 µM in data set [3] (setting [11]) and 1.49 µM in data set [4] (setting [13]).

On to `O=C(O)C[C@H](O)C[C@H](O)/C=C/c1c(C2CC2)nc2ccccc2c1-c1ccc(F)cc1` [PTV, Pitavastatin], for which the “cell count over the control cells” value with ORL8 cells, with ORL11 cells (setting [8]) and with OR6 cells was no less than 80% in each case. The EC50 in [1] (setting [9]) stood at 0.46 µM; in data set [3] (setting [11]), 0.16 µM; in [4] (setting [13]), 0.45 µM. The “luciferase activity after treatment” value in data set [1] (setting [10]) is 56%; in data set [3] (setting [12]), 49%; in [4] (setting [14]), 43%.

Take `NC(=O)c1ncn([C@@H]2O[C@H](CO)[C@@H](O)[C@H]2O)c1O` [Mizoribine]: the “luciferase activity (value relative to no drug)” value in data set [1] (OR6 cells, at 200 μM, after 72 hours) is given as “above 50%”. Also, the EC50 in data set [3] (setting [11]) came out at 76.5 µM; in data set [4] (setting [13]), 58.8 µM.

In the case of `NC(=O)c1ncn([C@@H]2O[C@H](CO)[C@@H](O)[C@H]2O)n1` [Ribavirin], the “cell count over the control cells” value with ORL8 cells, in the data set on ORL11 cells (setting [8]) and in the data set with OR6 cells was no less than 98% in each case. Besides, the cytotoxicity entry in data set [5] is “not recognized”. For the same molecule, the EC50 in data set [1] (setting [9]) was 119 µM; in [3] (setting [11]) it was 15.9 µM; in data set [4] (setting [13]) it was 10.1 µM; in [6], 76 µM. The “luciferase activity after treatment” value in data set [1] (OR6 cells, IFN-α at 0.25 IU/ml, ribavirin) stood at 97%; in data set [3] (IFN-α at 0.25 IU/ml, ribavirin at 12.5 W), 49%; in data set [4] (ORL8 cells, IFN-α at 0.25 IU/ml, ribavirin) it was 35%. Moreover, the blood concentrations in data set [7] is 10 to 14 µM.

Regarding `CCCCCCC(=O)CCCCCC/C=C/C[C@@H](O)[C@H](O)[C@@](N)(CO)C(=O)O` [Myriocin], the results for the “cell count over the control cells” value in the data set on ORL8 cells, with ORL11 cells (setting [8]) and with OR6 cells were 83.5%, no less than 91% and no less than 91%, respectively. In addition, the “luciferase activity (relative to no drug)” value in data set [1] (OR6 cells, at 5 nM to 40 nM, after 72 hours, EC50 not calculable) is “below 60%”. Besides, the EC50 in data set [2] (Con1 strain, analyzed 72 hours after the addition of the drug) is 0.0058 µM; in [3] (setting [11]), 0.00362 µM; in data set [4] (setting [13]), 0.00516 µM.

For the molecule `CCC(C)(C)C(=O)O[C@H]1C[C@@H](C)C=C2C=C[C@H](C)[C@H](CC[C@@H]3C[C@@H](O)CC(=O)O3)[C@H]21` [SMV, Simvastatin], the results for the EC50 in data set [1] (setting [9]), in data set [3] (setting [11]) and in data set [4] (setting [13]) were 1.42 µM, 0.15 µM and 0.28 µM, respectively.

B1: IFN-γ: interferon gamma (Sigma), pharmaceutical agent having an anti-HCV action (protein, UniProt P01579 24-161, looked up)
Interferon gamma: QDPYVKEAENLKKYFNAGHSDVADNGTLFLGILKNWKEESDRKIMQSQIVSFYFKLFKNFKDDQSIQKSVETIKEDMNVKFFNSNKKKRDDFEKLTNYSVTDLNVQRKAIHELIQVMAELSPAAKTGKRKRSQMLFRG
As for B1, the “cell count over the control cells” value in the data set on ORL8 cells, with ORL11 cells and with OR6 cells was no less than 90% throughout. In [1] (OR6 cells, luciferase activity after 72 hours), this molecule gave an EC50 of 0.21 IU/ml. For the same molecule, the “EC50 (50% effective drug concentration)” value was found to be 0.13 IU/ml in data set [3] (luciferase activity after 72 hours) and 0.077 IU/ml in data set [4] (ORL8 cells, luciferase activity after 72 hours).
